These results are taken from paper PMC5654968 (NPJ Systems Biology and Applications, 2017).

The format of the assay is in vivo, rat. As for the experimental part: Distilled water and saline were administered as vehicle to rats in each control group. […] Plasma cytokine levels were measured by ELISA or multiplex immunoassay; common metabolites and lipid mediators were analyzed by GC-MS/MS and LC-MS/MS, respectively.
Pathway maps of lipid mediators were created by using CellDesigner 4.4 software (http://www.celldesigner.org). We evaluated the effects of the treatments on specific lipid mediators and categorized them according to COX, CYP and LOX pathways by Fisher’s exact test. The proinflammatory and anti-inflammatory indices were analyzed as described by Tam et al. with modification.[22]

[1] abbreviates: PM/P (polyI:C+maoto vs polyI:C), 2h.
Setting [2] is: PM/P (polyI:C+maoto vs polyI:C), 4h.

Where two headings read alike, the source gives them in different places.

For the molecule `CC/C=C\C/C=C\C=C\C(O)C/C=C\C/C=C\C/C=C\CCC(=O)O` (centres unmarked) [13-HDoHE], the “log2FC of plasma level” value by setting is: (M/C (maoto vs control), 2h) 0.03; (M/C (maoto vs control), 4h) -0.44; (P/C (polyI:C vs control), 2h) 0.01; (P/C (polyI:C vs control), 4h) 0.18; under setting [1], -0.06; under setting [2], -0.62.
With `CCC(O)CC/C=C\C/C=C\C/C=C\C/C=C\CCCC(=O)O` (centres unmarked) [18-HETE], the “log2FC of plasma level” value reads like this: (M/C (maoto vs control), 2h) 0.16; (M/C (maoto vs control), 4h) -0.08; (P/C (polyI:C vs control), 2h) 0.25; (P/C (polyI:C vs control), 4h) -0.05; under setting [1], -0.26; under setting [2], -0.07.
For the molecule `CCCCCC(=O)/C=C/[C@@H]1[C@H](C/C=C\CCCC(=O)O)[C@@H](O)C[C@H]1O` [8-iso-15-keto-PGF2α], the “log2FC of plasma level” value is recorded as -0.41 (M/C (maoto vs control), 2h); -0.68 (M/C (maoto vs control), 4h); -0.16 (P/C (polyI:C vs control), 2h); 1.04 (P/C (polyI:C vs control), 4h); -0.14 under setting [1]; -0.99 under setting [2].
Consider `CC/C=C\C/C=C\C/C=C\C/C=C\C/C=C\CCCC(=O)O` [EPA, eicosapentaenoic acid], for which the “log2FC of plasma level” value is, setting by setting: (M/C (maoto vs control), 2h) 0.56; (M/C (maoto vs control), 4h) -0.10; (P/C (polyI:C vs control), 2h) 0.28; (P/C (polyI:C vs control), 4h) -0.05; under setting [1], 0.04; under setting [2], 0.03.
`CC/C=C\CC(O)/C=C/C=C\C/C=C\C/C=C\CCCC(=O)O` (centres unmarked) [15-HEPE]: the “log2FC of plasma level” value runs as follows: (M/C (maoto vs control), 2h) 0.47; (M/C (maoto vs control), 4h) -0.29; (P/C (polyI:C vs control), 2h) 0.28; (P/C (polyI:C vs control), 4h) 0.06; under setting [1], -0.02; under setting [2], -0.55.
Consider `CC/C=C\C/C=C\C/C=C\C/C=C\CC(O)C(O)CCCC(=O)O` (centres unmarked) [5,6-DiHETE], for which the “log2FC of plasma level” value runs as follows: (M/C (maoto vs control), 2h) -0.03; (M/C (maoto vs control), 4h) -0.23; (P/C (polyI:C vs control), 2h) -0.19; (P/C (polyI:C vs control), 4h) 0.03; under setting [1], -0.44; under setting [2], -0.44.
In the case of `O=C(O)CCC/C=C\C/C=C\C/C=C\C/C=C\CCCCCO` [20-HETE], the “log2FC of plasma level” value was 0.51 (M/C (maoto vs control), 2h); -0.20 (M/C (maoto vs control), 4h); -0.23 (P/C (polyI:C vs control), 2h); 0.52 (P/C (polyI:C vs control), 4h); 0.70 under setting [1]; 0.06 under setting [2].
For the molecule `CC/C=C\C/C=C\C/C=C\C/C=C\C=C\C(O)CCCC(=O)O` (centres unmarked) [5-HEPE], the “log2FC of plasma level” value is 0.39 (M/C (maoto vs control), 2h); -0.35 (M/C (maoto vs control), 4h); 0.16 (P/C (polyI:C vs control), 2h); 0.04 (P/C (polyI:C vs control), 4h); 0.10 under setting [1]; -0.47 under setting [2].
As for `CC/C=C\C/C=C\C/C=C\C/C=C\C=C\C(O)C/C=C\CCC(=O)O` (centres unmarked) [7-HDoHE], the “log2FC of plasma level” value by setting is: (M/C (maoto vs control), 2h) 0.11; (M/C (maoto vs control), 4h) -0.26; (P/C (polyI:C vs control), 2h) 0.02; (P/C (polyI:C vs control), 4h) 0.23; under setting [1], -0.17; under setting [2], -0.39.
For `CCCCCC=CCC=CCC=CC=CC(=O)CCCC(=O)O` [5-KETE], the “log2FC of plasma level” value by setting is: (M/C (maoto vs control), 2h) -0.29; (M/C (maoto vs control), 4h) -0.45; (P/C (polyI:C vs control), 2h) -0.18; (P/C (polyI:C vs control), 4h) 0.36; under setting [1], -0.02; under setting [2], -0.67.
On to `CC/C=C\C/C=C\C/C=C\C/C=C\C/C=C\C=C\C(O)CCC(=O)O` (centres unmarked) [4-HDoHE], for which the “log2FC of plasma level” value (M/C (maoto vs control), 2h) came out at 0.12; the “log2FC of plasma level” value (M/C (maoto vs control), 4h) is -0.59; the “log2FC of plasma level” value (P/C (polyI:C vs control), 2h) was -0.04; the “log2FC of plasma level” value (P/C (polyI:C vs control), 4h) stood at 0.33; the “log2FC of plasma level” value under setting [1] is 0.03; the “log2FC of plasma level” value under setting [2] is -0.79.
Turning to `O=C(O)CCC/C=C\C/C=C\C/C=C\C/C=C\CCCCC(=O)O` [20-carboxy-AA], the “log2FC of plasma level” value reads like this: (M/C (maoto vs control), 2h) 0.40; (M/C (maoto vs control), 4h) 0.17; (P/C (polyI:C vs control), 2h) 0.03; (P/C (polyI:C vs control), 4h) 0.32; under setting [1], 0.28; under setting [2], 0.00.
With `CCCCC/C=C\CC(O)C(O)C/C=C\C/C=C\CCCC(=O)O` (centres unmarked) [11,12-DHET], the “log2FC of plasma level” value reads like this: (M/C (maoto vs control), 2h) 0.90; (M/C (maoto vs control), 4h) 0.13; (P/C (polyI:C vs control), 2h) -0.15; (P/C (polyI:C vs control), 4h) 0.23; under setting [1], 0.19; under setting [2], -0.31.
Take `CCCCC[C@H](O)/C=C/[C@H]1OC(O)C[C@H](O)[C@@H]1C/C=C\CCCC(=O)O` (some centres unmarked) [TXB2]: the “log2FC of plasma level” value is, setting by setting: (M/C (maoto vs control), 2h) 1.36; (M/C (maoto vs control), 4h) -0.87; (P/C (polyI:C vs control), 2h) 0.70; (P/C (polyI:C vs control), 4h) 0.28; under setting [1], 0.92; under setting [2], -0.46.
For `CCCCCC(O)/C=C/C=C\CCCCCCCCCC(=O)O` (centres unmarked) [15-HEDE], the “log2FC of plasma level” value runs as follows: (M/C (maoto vs control), 2h) 0.33; (M/C (maoto vs control), 4h) -0.76; (P/C (polyI:C vs control), 2h) -0.05; (P/C (polyI:C vs control), 4h) 0.71; under setting [1], 0.14; under setting [2], -1.18.
As to `CCCC(O)C/C=C\C/C=C\C/C=C\C/C=C\CCCC(=O)O` (centres unmarked) [17-HETE], the “log2FC of plasma level” value runs as follows: (M/C (maoto vs control), 2h) 0.20; (M/C (maoto vs control), 4h) 0.07; (P/C (polyI:C vs control), 2h) 0.59; (P/C (polyI:C vs control), 4h) 0.13; under setting [1], 0.42; under setting [2], 0.16.
`CCCCC(O)/C=C\C/C=C\C/C=C\C/C=C\CCCC(=O)O` (centres unmarked) [16-HETE]: the “log2FC of plasma level” value runs as follows: (M/C (maoto vs control), 2h) 0.13; (M/C (maoto vs control), 4h) -0.23; (P/C (polyI:C vs control), 2h) 0.13; (P/C (polyI:C vs control), 4h) 0.70; under setting [1], -0.02; under setting [2], -0.94.
On to `CCCCC/C=C\C/C=C\C=C\C(O)C/C=C\CCCC(=O)O` (centres unmarked) [8-HETE], for which the “log2FC of plasma level” value reads like this: (M/C (maoto vs control), 2h) 0.09; (M/C (maoto vs control), 4h) -0.40; (P/C (polyI:C vs control), 2h) -0.12; (P/C (polyI:C vs control), 4h) 0.39; under setting [1], 0.05; under setting [2], -0.62.
Take `CCCCCC(=O)/C=C/C=C\CCCCCCCC(=O)O` [13-KODE]: the “log2FC of plasma level” value runs as follows: (M/C (maoto vs control), 2h) 0.39; (M/C (maoto vs control), 4h) -1.68; (P/C (polyI:C vs control), 2h) -0.08; (P/C (polyI:C vs control), 4h) 0.50; under setting [1], -0.15; under setting [2], -1.45.
Regarding `CCCCC/C=C\C\C=C/C=C/C=C/[C@@H](SCC(NC(C)=O)C(=O)O)[C@@H](O)CCCC(=O)O` (some centres unmarked) [N-acetyl-LTE4], the “log2FC of plasma level” value (M/C (maoto vs control), 2h) is -1.85; the “log2FC of plasma level” value (M/C (maoto vs control), 4h) was -1.41; the “log2FC of plasma level” value (P/C (polyI:C vs control), 2h) is given as 2.21; the “log2FC of plasma level” value (P/C (polyI:C vs control), 4h) worked out at 1.28; the “log2FC of plasma level” value under setting [1] is listed as -2.45; the “log2FC of plasma level” value under setting [2] was -0.96.
For `CC/C=C\C/C=C\C=C\C(O)CCCCCCCC(=O)O` (centres unmarked) [9-HOTrE], the “log2FC of plasma level” value is on record as 0.03 (M/C (maoto vs control), 2h); -0.77 (M/C (maoto vs control), 4h); 0.04 (P/C (polyI:C vs control), 2h); 0.61 (P/C (polyI:C vs control), 4h); -0.05 under setting [1]; -1.19 under setting [2].
Consider `CCCCC/C=C\C/C=C\C/C=C\CC1OC1CCCC(=O)O` (centres unmarked) [5,6-EET], for which the “log2FC of plasma level” value by setting is: (M/C (maoto vs control), 2h) -0.22; (M/C (maoto vs control), 4h) -0.49; (P/C (polyI:C vs control), 2h) -0.26; (P/C (polyI:C vs control), 4h) 0.11; under setting [1], 0.12; under setting [2], -0.56.
`CCCCC/C=C\C/C=C\CC1OC1C/C=C\CCCC(=O)O` (centres unmarked) [8,9-EET]: the “log2FC of plasma level” value is listed as -0.23 (M/C (maoto vs control), 2h); -0.33 (M/C (maoto vs control), 4h); -0.32 (P/C (polyI:C vs control), 2h); 0.06 (P/C (polyI:C vs control), 4h); 0.27 under setting [1]; -0.66 under setting [2].
Turning to `CCCCC[C@H](O)/C=C/[C@H]1[C@H](O)CC(=O)[C@@H]1C/C=C\CCCC(=O)O` [PGE2], the “log2FC of plasma level” value is, setting by setting: (M/C (maoto vs control), 2h) -0.31; (M/C (maoto vs control), 4h) 0.22; (P/C (polyI:C vs control), 2h) 0.59; (P/C (polyI:C vs control), 4h) 0.59; under setting [1], -0.15; under setting [2], 0.22.
As to `CC/C=C\CC(O)/C=C/C=C\CCCCCCCC(=O)O` (centres unmarked) [13-HOTrE], the “log2FC of plasma level” value (M/C (maoto vs control), 2h) is on record as 0.23; the “log2FC of plasma level” value (M/C (maoto vs control), 4h) was -0.43; the “log2FC of plasma level” value (P/C (polyI:C vs control), 2h) is listed as 0.16; the “log2FC of plasma level” value (P/C (polyI:C vs control), 4h) was 0.11; the “log2FC of plasma level” value under setting [1] is -0.20; the “log2FC of plasma level” value under setting [2] was -0.60.
For `CCCCCC(=O)CCC1C(O)CC(O)C1CC(=O)CCCCC(=O)O` (stereo not drawn) [6,15-diketo-13,14-dihydro-PGF1α], the “log2FC of plasma level” value is listed as -0.52. Moreover, under “first value of an incomplete line, time (2h or 4h) not assignable”, the “log2FC of plasma level” value is recorded as 1.63.
